Assay in all cases: NCI-60 cell line screen, 48 h
In test [1] the test system is A549.
Test [2] has as its system BT-549.
The subject of test [3] is CAKI-1.
Test [4] has as its system HCT-15.
For test [5], the system named is HOP-62.
In test [6] the test system is HT-29.
The subject of test [7] is Hs-578T.
Test [8] concerns K562.
In test [9] the test system is KM12.
The subject of test [10] is LOX IMVI.
The subject of test [11] is MCF7.
Test [12] concerns MDA-MB-435.
Test [13] concerns MOLT-4.
Test [14] relates to Malme-3M.
The subject of test [15] is NCI/ADR-RES.
Test [16] concerns OVCAR-8.
In test [17] the test system is SK-MEL-28.
Test [18] relates to SK-MEL-5.
In test [19] the test system is SNB-75.
Test [20] deals with SR.

This note sets out measurements from ChEMBL document CHEMBL1201862, “PubChem BioAssay data set” (2004).

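Five concentrations, 48 hours, 96-well plates. Abbreviation: GI50, concentration required for 50% inhibition of growth.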 The source made the active and inactive calls. No stated cut-off is given here; in the data, active = GI50 up to about 1.1 µM and inactive = higher. A value given as a limit tells only on which side of the number the result lay.

As for `O=C(CCCn1ccnc1[N+](=O)[O-])NCCn1cnc([N+](=O)[O-])n1`, the GI50 in test [1] is > 100 µM (inactive); in test [2], > 100 µM (inactive); in test [3] it was > 100 µM (inactive); in test [4] it was over 100 µM; in test [5], > 100 µM (inactive); in [6], > 100 µM (inactive). The GI50 in test [7], in test [8], in test [9], in test [10], in [11] and in [12] was > 100 µM (inactive) in each case. For the same compound, the GI50 in test [13], in test [14], in [15], in test [16], in test [17] and in test [18] was > 100 µM (inactive) in each case. For the same compound, the GI50 in test [19] and in test [20] was > 100 µM (inactive) throughout.

For the compound `C/C(=N\NC(=S)Nc1ccc([N+](=O)[O-])cc1)c1nc2cccnc2[nH]1`, the GI50 in test [1] was 0.783 µM (active); in test [2], 0.452 µM (active); in [3], 1 µM (active); in test [4], 0.617 µM; in test [5], 1.07 µM (active); in test [6], 0.615 µM (active). In addition, the GI50 was 1.27 µM (inactive) in test [7]; 1.55 µM (inactive) in test [8]; 0.873 µM (active) in test [9]; 0.442 µM (active) in [10]; 0.611 µM (active) in [11]; 1.34 µM (inactive) in test [12]. Moreover, the GI50 in test [13] is 0.377 µM (active); in test [14], 1.36 µM (inactive); in test [15] it was 1.13 µM (inactive); in test [16] it was 0.348 µM (active); in test [17], 0.698 µM (active); in test [18], 0.991 µM (active). For the same compound, the GI50 in test [19] was 1.38 µM (inactive); in test [20], 0.388 µM (active).

For `O=C1C([P+](c2ccccc2)(c2ccccc2)c2ccccc2)=C([O-])C(=Cc2ccc(Cl)c(Cl)c2)C([O-])=C1[P+](c1ccccc1)(c1ccccc1)c1ccccc1`, the GI50 in [1] is 2.62 µM (inactive); in test [2], 2.27 µM (inactive); in [3], 2.18 µM (inactive); in test [4] it was 4.79 µM; in [5] it was 3.54 µM (inactive); in test [6], 1.91 µM (inactive). Also, the GI50 was 4.02 µM (inactive) in test [7]; 1.6 µM (inactive) in [8]; 2.01 µM (inactive) in test [9]; 1.06 µM (active) in test [10]; 1.46 µM (inactive) in test [11]; 2.3 µM (inactive) in test [12]. Further, the GI50 was 0.421 µM (active) in test [13]; 2.34 µM (inactive) in [14]; 8.71 µM (inactive) in [15]; 2.23 µM (inactive) in test [16]; 2.49 µM (inactive) in test [17]; 2.34 µM (inactive) in [18]. The GI50 is 4.02 µM (inactive) in test [19] and 0.925 µM (active) in test [20].

For `Cc1nn(C(=O)c2ccc(Cl)cc2)c2c1C(c1ccc([N+](=O)[O-])cc1)SC(=N)N2` (stereo not given), the GI50 in [1] was > 10 µM (inactive); in test [2], > 10 µM (inactive); in test [3] it was > 10 µM (inactive); in test [4], over 10 µM; in [5], > 10 µM (inactive); in test [6], > 10 µM (inactive). In addition, the GI50 in test [7], in test [8], in test [9], in test [10], in test [11] and in test [12] was > 10 µM (inactive) each time. For the same compound, the GI50 in [13], in test [14], in test [15], in test [16], in [17] and in test [18] was > 10 µM (inactive) throughout. The GI50 in [19] and in test [20] was > 10 µM (inactive) in each case.

As for `CO/N=C(\C(=O)Nc1cncs1)c1csc(N)n1`, the GI50 in [1] was > 10 µM (inactive); in [2] it was > 10 µM (inactive); in test [3], > 10 µM (inactive); in test [4], over 10 µM; in test [5] it was > 10 µM (inactive); in test [6], > 10 µM (inactive). Moreover, the GI50 in [7], in test [8], in [9], in test [10], in [11] and in test [12] was > 10 µM (inactive) each time. For the same compound, the GI50 in test [13], in test [14], in test [15], in test [16], in test [17] and in test [18] was > 10 µM (inactive) in each case. For the same compound, the GI50 in [19] and in [20] was > 10 µM (inactive) in each case.

Consider `COc1ccc(C(=O)C#Cc2cnc(OC)nc2OC)cc1`, for which the GI50 was 4.17 µM (inactive) in test [1]; 1.6 µM (inactive) in test [2]; 1.19 µM (inactive) in test [3]; 1.02 µM in [4]; 17 µM (inactive) in test [5]; 1.22 µM (inactive) in [6]. The GI50 in [7] was 4.07 µM (inactive); in [8] it was 0.367 µM (active); in test [9], 2.68 µM (inactive); in test [10] it was 0.147 µM (active); in test [11] it was 0.778 µM (active); in test [12], 2.57 µM (inactive). In addition, the GI50 is 0.0531 µM (active) in [13]; 1.67 µM (inactive) in test [14]; 1.82 µM (inactive) in [15]; 1.56 µM (inactive) in [16]; 1.61 µM (inactive) in test [17]; 1.34 µM (inactive) in test [18]. The GI50 in test [19] was 2.22 µM (inactive); in test [20], 0.0491 µM (active).

As to `NC(=O)c1cccc([C@@H]2O[C@H](CO)[C@@H](O)[C@H]2O)c1`, the GI50 in [1] was 27.2 µM (inactive); in [2] it was 14.5 µM (inactive); in [3], 18.4 µM (inactive); in [4], 3.37 µM; in [5], 8.3 µM (inactive); in test [6] it was 16.2 µM (inactive). In addition, the GI50 in test [7] is 10.5 µM (inactive); in [8] it was 3.17 µM (inactive); in test [9], 4.09 µM (inactive); in [10] it was 36 µM (inactive); in test [11], > 37.3 µM (inactive); in test [12], > 49.2 µM (inactive). For the same compound, the GI50 in [13] is 1.23 µM (inactive); in test [14], > 100 µM (inactive); in [15], 6.41 µM (inactive); in test [16], 3.79 µM (inactive); in [17], 6.98 µM (inactive); in [18], 32.2 µM (inactive). For the same compound, the GI50 is 4.18 µM (inactive) in test [19] and 23.7 µM (inactive) in [20].
